Measured values taken from PubChem BioAssay (NCI).
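Values below derive from 48-hour exposures of cells grown in 96-well plates, with endpoints linearly interpolated between the two concentrations bracketing the appropriate inhibition level. GI50: concentration for 50% inhibition of growth. At the TGI there is no net growth.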

Assays:
Experiment in all cases: NCI-60 cell line screen, 48 h
A498 renal = test system: A498 renal
BT-549 breast = test system: BT-549 breast
HOP-62 NSCLC = test system: HOP-62 NSCLC
HT29 colon = test system: HT29 colon
M14 melanoma = test system: M14 melanoma
MDA-MB-231 breast = test system: MDA-MB-231 breast
SR leukemia = test system: SR leukemia
SW-620 colon = test system: SW-620 colon
U251 CNS = test system: U251 CNS
UO-31 renal = test system: UO-31 renal

| Compound | GI50 (A498 renal) [µM] | TGI (A498 renal) [µM] | GI50 (BT-549 breast) [µM] | TGI (BT-549 breast) [µM] | GI50 (HOP-62 NSCLC) [µM] | TGI (HOP-62 NSCLC) [µM] | GI50 (HT29 colon) [µM] | TGI (HT29 colon) [µM] | GI50 (M14 melanoma) [µM] | TGI (M14 melanoma) [µM] | GI50 (MDA-MB-231 breast) [µM] | TGI (MDA-MB-231 breast) [µM] | GI50 (SR leukemia) [µM] | TGI (SR leukemia) [µM] | GI50 (SW-620 colon) [µM] | TGI (SW-620 colon) [µM] | GI50 (U251 CNS) [µM] | TGI (U251 CNS) [µM] | GI50 (UO-31 renal) [µM] | TGI (UO-31 renal) [µM] |
| --- | --- | --- | --- | --- | --- | --- | --- | --- | --- | --- | --- | --- | --- | --- | --- | --- | --- | --- | --- | --- |
| COC(=O)c1cnc(=O)n(C2CC(O)C(CO)O2)c1 (centres undefined) | > 100 | > 100 | > 100 | > 100 | > 100 | > 100 | > 100 | > 100 | > 100 | > 100 | > 100 | > 100 | > 100 | > 100 | > 100 | > 100 | > 100 | > 100 | > 100 | > 100 |
| Cc1ccc(S(=O)(=O)N/N=C/C(Br)=C(/Br)C(=O)O)cc1 |  | 32.3 |  | 20.7 |  | 43.6 |  | 26.8 |  | 18.2 |  | 36 |  | 1.7 |  | 14 |  | 18.8 |  | 20 |
| NC(N)=NC(CC(=O)O)c1ccccc1 (centres undefined) |  | > 100 |  | > 100 |  | > 100 |  | > 100 |  | > 100 |  | > 100 |  | > 100 |  | > 100 |  | > 100 |  | > 100 |
| CC1(C)N=C(N)N=C(N)N1c1cccc(/C=C/C=C/c2cccc([N+](=O)[O-])c2)c1 | 13 | 39.3 | 6.91 | 23.8 | 18.1 | 35.9 | 1.59 | 14.7 | 13.6 | 50.1 | 10.3 | 24.4 | 4.71 | 29.2 | 2.56 | 18.8 | 0.801 | 13.6 | 55.2 | > 100 |
| O=S(=O)(c1ccc(NC(=S)N/N=C/c2ccccc2O)cc1)N1CCCCC1 |  | 27.9 |  | > 100 |  | 4.45 |  | > 68.8 |  | 2.78 |  | > 44.5 |  | 3.58 |  | 21 |  | 16.8 |  | > 41.9 |
| C[C@H]1[C@H](OC(=O)CCC(=O)O)O[C@@H]2O[C@]3(C)CC[C@H]4[C@H](C)CC[C@@H]1[C@@]24OO3 | 5.93 | 33.8 | 0.292 | 4.55 | 3.68 | 27.3 | 0.627 | 16.8 | 0.777 | 14.8 | 2.34 | 35.4 | 0.238 | 4.27 | 0.282 | 17.8 | 0.503 | 18.5 | 0.398 | 7.38 |
| COc1cc(O)c(C(=O)/C=C/c2ccccc2)c(OC)c1 |  | 16.5 |  | 16.2 |  | 38.5 |  | 22.4 |  | 84.1 |  | 24.2 |  | 6.05 |  | 23.8 |  | 21.3 |  | 17.6 |
| COc1ccccc1C(=O)/C=C/c1cc2cccc(OC)c2[nH]c1=O | 0.0158 | 0.0788 | 0.112 | 1.37 | 0.0668 | 4.9 | < 0.0131 | 4.02 | < 0.0131 | 0.3 | 0.151 | 1.79 |  | > 51.3 | 0.0158 | 1.56 | 0.0319 | 1.5 | 0.115 | 1.68 |
| Cc1cc2c(C)c3cc(C)c(N)cc3nc2cc1N | 0.363 | 2.01 | 3.12 | 11.6 | 1.11 | 7.08 | 0.373 | 2.09 | 1.83 | 6.69 | 1.09 | 3.48 | 0.507 | 4.2 | 0.38 | 3.57 | 0.648 | 5.72 | 2.02 | 8.79 |
| COc1cc[nH]c1/C=C1\C(=O)Nc2ccc(F)c(C#C[C@@H](O)[C@@H](N)[C@@H](C)O)c21 | 0.397 | 0.955 | 0.642 | 1.65 | 0.647 | 2 | 0.448 | 1.49 | 0.413 | 1.24 | 0.485 | 2.37 | 0.114 | 1.95 | 0.559 | 3.07 | 0.445 | 2.61 | 0.745 | 2.7 |
| C[C@@H](c1ccc2nccn2c1)n1nnc2ncc(-c3cnn(C)c3)nc21 | 72.8 | > 100 | 91.7 | > 100 | > 100 | > 100 | > 100 | > 100 | > 100 | > 100 | > 100 | > 100 | 49.9 | > 100 | > 100 | > 100 | > 100 | > 100 | > 100 | > 100 |
| O=C1CC(=O)N(C2CCCCC2)C(=O)N1c1ccccc1S(=O)(=O)Oc1ccccc1 |  | > 100 |  | > 100 |  | > 100 |  | > 100 |  | > 100 |  | > 100 |  | > 100 |  | > 100 |  | > 100 |  | 33 |
| ClC(=Nc1cccc2ccccc12)N(c1ccccc1)c1ccccc1 |  | > 100 |  | > 100 |  | > 100 |  | > 100 |  | > 100 |  | > 100 |  | > 100 |  | > 100 |  | > 100 |  | > 100 |
| Nc1nc(N)[n+]([O-])c(N)c1NCO |  | > 100 |  | > 100 |  | > 100 |  | > 100 |  | > 100 |  | > 100 |  | > 100 |  | > 100 |  | > 100 |  | > 100 |
| COc1cc(C(=O)O)c([N+](=O)[O-])c(OC)c1OC |  | > 100 |  | > 100 |  | > 100 |  | > 100 |  | > 100 |  | > 100 |  | > 100 |  | > 100 |  | > 100 |  | > 100 |
| COc1cc(-c2cc(C(=O)N3CCN(C(=O)c4ccccc4NCc4ccco4)CC3)nc3cc(-c4ccccc4)nn23)cc(OC)c1OC | 3.02 | > 28.4 | 4.27 | > 100 | 3.03 | > 100 | 1.56 | 10.7 | 2.9 | > 75.4 | 5.11 | > 100 | 0.523 | > 100 | 2.62 | > 100 | 3.85 | > 100 | 3.71 | > 100 |
| O=C1c2ccccc2-c2c1c1ccccc1c(=O)n2CCO |  | > 100 |  | > 100 |  | 32.5 |  | > 100 |  | > 100 |  | > 100 |  | 22.5 |  | > 100 |  | > 100 |  | > 81 |
